Test [1] can be described thus: Physical trauma (head injury) model, grip score 18 hours post-injury. The test is classed as in vivo, mice (male CF-1). To be noted: grip score 18 h post trauma, FIGS. 1-8. From the text:
Two tests which can be readily performed are observation of grip score and observation of grip time in injured test animals. Another test for agonist activity is for decrease in mortality caused by the CNS injury. Mice can be treated to simulate CNS injury by a variety of methods: they can be deprived of oxygen by administration of KCN (Nauquier, A., et al., Arch. Int. Pharmacodyn., 249:330 (1981)) or by temporary tying-off of the carotid artery (Braughler, J. M. and Lainer, M. J., "The effects of large doses of methylprednisolone on neurologic recovery and survival in the Mongolian gerbil following three hours of unilateral carotid occlusion," CNS Trauma, 3:153-162 (1986)). Alternatively, blows can be administered to the head or the spinal cord of the test animal.
The following protocol was used:
The compound to be tested was weighed and suspended in a polyethylated castor oil solution ("Cremophore") (21% Cremaphore, 3% ethanol in 0.9% saline). The concentration of the solution was then adjusted for administration at a dose of 0.01 cc/gm body weight. For example, for a dose of 10 mg/Kg, the solution was made 1.0 mg/cc, and a 23 g mouse would receive 0.23 cc of this solution. The solution was sonicated for approximately 90 minutes, or until the compound is dissolved.
Male CF-1 mice (15-25 gm) were weighed and marked for identification purposes. Each individual mouse was restrained by grasping the dorsal skin of the neck until the mouse was still. An impounder was used to administer the trauma. The impounder consists of a weight suspended over the animal's head at a height sufficient to produce significant injury when dropped, and a means for immobilizing the animal (in this case, room to hold the animal in place). […] 62:882-887, 883. The mouse was positioned properly under the impounder, and the weight was released from its preset height (11 CM).
Immediately following injury, the mouse was placed under a heat lamp. At various times after injury, the drug was administered intravenously at the specified dose. The time of injury and the time of injection were recorded.
B) Measurement of Grip Score
Each mouse was evaluated 18 hours post-injury for neurological deficit. The delay of 18 hours provided time for any sedative effects of the compound to wear off. It also provided time for healing to occur. Mortality was also noted. A standard grip test, as described in Hall et al., J. Neurosurg. 68:456-461 (1988), was used. The apparatus consisted of a taut string suspended between two uprights, 60 cm in length and 40 cm above a padded table.
Each mouse was picked up by the tail and placed on the string. […] The tail was then released. Grip score was recorded based on the mouse's performance while on the string. The following criteria were used (taken from Hall, E. D., J. Neurosurg. 62:882-887 (1985)):
C) Statistical Analysis Results of the above test were analyzed for statistical significance using the Mann-Whitney U test. See R. V. Tallarida & R. B. Murray, MANUAL OF PHARMACOLOGIC CALCULATIONS WITH COMPUTER PROGRAMS, Springer-Verlag, N.Y., pp. 57-59 (1981). This test was used to compare each set of grip scores for a particular dose of a particular compound against the grip scores for the control group.

The target in test [2] is T1, peripheral-type BZ receptors (Rattus norvegicus, UniProt P16257).
T1 construct: displacement of ^3 H-RO5-4864 in brain homogenates; from tissue; host or cells: brain homogenates
Briefly: Competitive binding assay, displacement of 3H-Ro5-4864 in brain homogenates. An excerpt:
Sprengel, R., et al., "Molecular cloning and expression of cDNA encoding a peripheral-type benzodiazepine receptor," J. Biol. Chem., 264:20415-20421 (1989).
Some of these compounds were further tested in in vivo studies.

Test [3] deals with T1, peripheral-type BZ receptors. To be noted: # data from Wang et al., Mol. Pharmacol. 25:349-351 (1984); cited from earlier work.
Test [4] is described as follows: Physical trauma (head injury) model, grip score 18 hours post-injury. The test is classed as in vivo, mice (male CF-1). To be noted: by extrapolation from Table 3 binding data.

“Also recorded” adds a separate entry of the source. Where two headings read alike, the source gives them in different places.

Take `O=C1CN=C(c2ccccc2Cl)c2cc([N+](=O)[O-])ccc2N1` [Clonazepam]: in test [1], the “effectiveness in treatment of CNS trauma/damage (in words)” value was “inactive in the treatment of CNS damage”. In test [2], the IC50 was found to be 9180 nM.

In the case of `CN1C(=O)CN=C(c2ccccc2Cl)c2cc(Cl)ccc21` [Ro5-3448, 2',7-Dichloro-1,3-dihydro-1-methyl-5-phenyl-2H-1,4-benzodiazepin-2-one], the IC50 in test [3] was 35.2 nM. In test [4], the “effectiveness for treatment of CNS trauma or disease (in words)” value (from here on “effectiveness for treatment”) was “effective”.

In the case of `CN1C(=O)CN=C(c2ccccc2)c2ccccc21` [Ro5-3464, 1,3-Dihydro-1-methyl-5-phenyl-2H-1,4-benzodiazepin-2-one], in test [1], the “effectiveness in treatment of CNS trauma/damage (in words)” value was “non-effective; also recorded: inactive in the treatment of CNS damage”. For the same molecule, in test [2], the IC50 is 1230 nM and the “binding affinity to peripheral-type BZ sites (in words)” value is “very high IC50 values”.

Turning to `CN1C(=O)CN=C(c2ccccc2Cl)c2ccccc21` [Ro5-4608, 2'-Chloro-1,3-dihydro-1-methyl-5-phenyl-2H-1,4-benzodiazepin-2-one], the IC50 in test [3] was 215 nM.

For the molecule `CN1C(=O)CN=C(c2ccc(Cl)cc2)c2ccccc21` [Ro5-5115, 4'-Chloro-1,3-dihydro-1-methyl-5-phenyl-2H-1,4-benzodiazepin-2-one], the IC50 in test [3] is 106 nM.

In the case of `CN1C(=O)CN=C(c2ccc(F)cc2)c2ccccc21` [Ro5-5122, 4'-Fluoro-1,3-dihydro-1-methyl-5-phenyl-2H-1,4-benzodiazepin-2-one], the IC50 in test [3] is 442 nM.

As to `CN1C(=O)CN=C(c2ccc(Cl)cc2)c2cc(F)ccc21` [Ro5-6524, 4'-Chloro-7-fluoro-1,3-dihydro-1-methyl-5-phenyl-2H-1,4-benzodiazepin-2-one], the IC50 in test [3] was 340 nM.

For the molecule `CN1C(=O)CN=C(c2ccc(Cl)cc2)c2cc(F)ccc21` [Ro5-6531, 4'-Chloro-7-fluoro-1,3-dihydro-1-methyl-5-phenyl-2H-1,4-benzodiazepin-2-one], in test [1], the “effectiveness in treatment of CNS trauma/damage (in words)” value is recorded as “effective”. Further, the IC50 in test [2] (displacement of 3H-Ro5-4864 in brain homogenates, * data by procedure described herein) came out at 33.4 nM.

Consider `COc1ccc(C2=NCC(=O)N(C)c3ccc(Cl)cc32)cc1` [Ro5-6669, 7-Chloro-1,3-dihydro-4'-methoxy-1-methyl-5-phenyl-2H-1,4-benzodiazepin-2-one], for which the IC50 in test [3] was 18.7 nM. Moreover, the “effectiveness for treatment” value in test [4] was “effective”.

In the case of `CN1C(=O)CN=C(c2ccc(Cl)cc2Cl)c2cc(Cl)ccc21` [Ro5-6900, 2',4',7-Trichloro-1,3-dihydro-1-methyl-5-phenyl-2H-1,4-benzodiazepin-2-one], the IC50 in test [3] is 10 nM. For the same molecule, the “effectiveness for treatment” value in test [4] is reported as “effective”.

Consider `CN1C(=O)CN=C(c2ccc(Cl)cc2Cl)c2cc(Cl)ccc21` [Ro5-6902, 4',6',7-Trichloro-1,3-dihydro-1-methyl-5-phenyl-2H-1,4-benzodiazepin-2-one], for which the IC50 in test [3] was 23.4 nM. The “effectiveness for treatment” value in test [4] is listed as “effective”.

Regarding `C=CCN1C(=O)CN=C(c2ccc(Cl)cc2)c2cc(Cl)ccc21` [Ro5-6945, 1-Allyl-4',7-dichloro-1,3-dihydro-5-phenyl-2H-1,4-benzodiazepin-2-one], in test [3], the IC50 is 14.3 nM. Moreover, the “effectiveness for treatment” value in test [4] is “effective”.

In the case of `CCN1C(=O)CN=C(c2ccc(Cl)cc2)c2cc(Cl)ccc21` [Ro5-6993, 4',7-Dichloro-1-ethyl-1,3-dihydro-5-phenyl-2H-1,4-benzodiazepin-2-one], in test [3], the IC50 is 6.1 nM. For the same molecule, in test [4], the “effectiveness for treatment” value is recorded as “effective”.

On to `CN1C(=O)CN=C(c2c(Cl)cccc2Cl)c2cc(Cl)ccc21` [Ro7-5520, 2',6',7-Trichloro-1,3-dihydro-1-methyl-5-phenyl-2H-1,4-benzodiazepin-2-one], for which the IC50 in test [3] was 93.1 nM.

As for `CC(C)(C)OC(=O)c1ncn2c1[C@@H]1CCCN1C(=O)c1c(Br)cccc1-2` [Rol6-6028], the “effectiveness in treatment of CNS trauma/damage (in words)” value in test [1] was “inactive in the treatment of CNS damage”. This molecule also registered an IC50 in test [2] greater than 10000 nM.

By IC50 is commonly meant the concentration that inhibits the measured activity by half.

Source of the values: US5550124A, “Use of peripheral-type benzodiazpine sites for treatment of CNS trauma or disease” (priority 1991, dated 1996).
